Reference: patent publication US7618787B2, “Method of screening compound capable of accelerating or inhibiting apoptosis, apoptosis accelarator and apoptosis inhibitor” (Hisamitsu Pharmaceutical Co., Inc., priority 2004, dated 2009)

Assays:
p53 = p53 protein level (stabilization) by immunoblot in cotransfected COS7 cells; format: cell-based; conditions: COS7 cotransfection (FIG. 14, 15)
Procedure: (§1) Cells were transiently transfected with a total of 2 μg of expression plasmids. After 48 hours of the transfection, the cells were washed with ice-cold PBS and suspended in lysis buffer (pH 8.0; which contained 25 mM Tris-Cl, 137 mM sodium chloride, 1% Triton X-100, 1 mM phenylmethylsulfonyl fluoride (PMSF), and protease inhibitor mix (Roche Molecular Biochemicals)), followed by brief sonication. After centrifugation at 15000 rpm for 10 minutes, the supernatant was collected and assayed for protein concentrations by the Bradford assay (Bio-Rad). Equal amounts of lysates (protein amount: 50 μg) from the whole cells were denatured by boiling in Laemmli SDS-sample buffer, then separated on 10% SDS-polyacrylamide gel (SDS-PAGE), and transferred at room temperature for 1 hour to polyvinylidene difluoride (PVDF) membranes (Immobilon-P; Millipore) in Tris-glycine buffer containing 10% methanol. The membranes were blocked at room temperature for 1 hour with Tris-buffered saline (TBS-T) containing 5% skim milk and 0.1% Tween 20.
As previously reported, some protein kinases (e.g., c-Abl and PKCδ) that interact with p73 can stabilize p73. To confirm whether IKK-α influenced the stabilization of p73, COS7 cells were transfected with a constant amount of HA-p73α expression plasmid together with or without varying amounts of IKK-α expression plasmids and examined for HA-p73α protein levels. […]

p73 [1] = biological target: T1, p73 (Homo sapiens, UniProt O15350); experiment: p73 protein level (stabilization) by immunoblot in cotransfected COS7 cells; format: cell-based; conditions: COS7 cotransfection (FIG. 14, 15, 29)
T1 construct: expressed in transfected cells; host or cells: COS7
T1 sequence (O15350 1-636): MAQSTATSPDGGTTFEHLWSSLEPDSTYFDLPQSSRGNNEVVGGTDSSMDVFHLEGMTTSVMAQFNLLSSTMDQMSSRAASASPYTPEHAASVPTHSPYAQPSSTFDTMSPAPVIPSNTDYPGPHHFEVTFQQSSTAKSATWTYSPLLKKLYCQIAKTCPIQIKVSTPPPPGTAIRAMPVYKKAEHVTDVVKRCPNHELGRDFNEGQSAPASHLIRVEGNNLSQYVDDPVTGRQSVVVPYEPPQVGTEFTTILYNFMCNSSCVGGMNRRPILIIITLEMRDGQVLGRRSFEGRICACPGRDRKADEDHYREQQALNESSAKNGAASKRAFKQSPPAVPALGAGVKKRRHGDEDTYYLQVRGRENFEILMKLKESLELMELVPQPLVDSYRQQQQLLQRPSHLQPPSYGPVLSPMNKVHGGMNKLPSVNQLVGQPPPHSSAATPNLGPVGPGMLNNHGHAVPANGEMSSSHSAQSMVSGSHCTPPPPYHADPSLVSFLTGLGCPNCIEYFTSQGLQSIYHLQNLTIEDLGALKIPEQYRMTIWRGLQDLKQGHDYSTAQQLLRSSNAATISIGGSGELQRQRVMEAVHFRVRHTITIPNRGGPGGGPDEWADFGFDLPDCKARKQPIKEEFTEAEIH
Procedure: as §1
As previously reported, some protein kinases (e.g., c-Abl and PKCδ) that interact with p73 can stabilize p73. To confirm whether IKK-α influenced the stabilization of p73, COS7 cells were transfected with a constant amount of HA-p73α expression plasmid together with or without varying amounts of IKK-α expression plasmids and examined for HA-p73α protein levels. […] Next, whether IKK-β influenced the stabilization of p73 and p53 was investigated by transient transfection.

H1299 cells = experiment: Apoptosis assay (trypan blue / Red-Gal double staining), p73α-dependent; format: cell-based, human; conditions: H1299, coexpression with HA-p73α, 48 hours (FIG. 25-27)
Procedure: To detect apoptosis via p73α and IKK overexpression, H1299 cells were seeded at a density of 1.5×10^4 cells/well onto a 6-well tissue culture dish. Next day, the cells were transiently transfected with 50 ng of β-galactosidase expression plasmid and 50 ng of HA-p73α expression plasmid in the presence or absence of varying amounts of IKK-α or IKK-β expression vectors (100, 200, or 400 ng). After 48 hours of the transfection, the cells were washed with ice-cold PBS and stained at room temperature for 10 minutes with 0.4% trypan blue (PBS solution). Then, the cells were washed twice with PBS, then fixed for 10 minutes in PBS containing 2.5% glutaraldehyde, 1 mM magnesium chloride, and 2 mM EGTA, and stained for 2 hours with Red-Gal (Research Organics) according to the method described in Bayon, Y. et al., Mol. Cell. Biol. 23: 1061-1074 (2003). Red-Gal was used as a marker for visualizing the transfected cells to evaluate the degree of apoptosis occurring in the transfectants. […] Results were indicated by an average of three independent transfections (each performed three times or more).
Potential effect(s) of IKK-α on p73-dependent biological functions such as the regulation of apoptosis was examined. […] After 48 hours of the transfection, the cells were subjected to double staining with trypan blue (nonviable cells) and Red-Gal (transfected cells), and the number of purple cells was scored.

p73 [2] = experiment: Luciferase reporter assay, p73-dependent transcriptional activation in H1299 cells; format: cell-based, human; conditions: H1299, coexpression with HA-p73α or HA-p73β (FIG. 20, 21, 23)
Procedure: H1299 cells deficient in p53 were seeded at a density of 5×10^4 cells/well onto a 12-well tissue culture dish and transiently transfected with 100 ng of luciferase reporter construct (which carried a p53/p73-responsive element derived from a p21^WAF1, Bax, or MDM2 promoter), 10 ng of pRL-TK Renilla luciferase cDNA, and 25 ng of given expression plasmid (p53, HA-p73α, or HA-p73β) together with or without varying amounts of IKK-α or FLAG-IKK-β expression plasmids. The total amount of DNA per transfection was kept constant (510 ng) with a pcDNA3 empty plasmid. After 48 hours from the transfection, the cells were washed twice with ice-cold PBS and suspended in passive lysis buffer (Promega). Both firefly and Renilla luciferase activities were assayed by use of dual-luciferase reporter assay system (Promega) according to the instruction. […] intensity was measured with TD-20 luminometer (Turner Design). The firefly luciferase signal was normalized based on the Renilla luciferase signal. Results obtained from at least 3 transfections were indicated by mean value±standard deviation.
To explore the functional implication of interaction between IKK-α and p73, the effect of IKK-α on p73-mediated transcriptional activation was first examined. H1299 cells deficient in p53 were transfected with a HA-p73α or HA-p73β expression plasmid and a luciferase reporter construct under the control of a p21^WAF1, Bax, or MDM2 promoter together with or without varying amounts of IKK-α expression plasmids. […] By contrast, increase in p53-responsive reporter gene activity was not induced by IKK-α (FIG. 22). To examine the specificity of p73-dependent transcriptional activation mediated by IKK-α, whether IKK-β enhanced p73 transcriptional activity to p53/p73-responsive promoters was confirmed.

HA-p73α = biological target: T2, HA-p73α (Homo sapiens, UniProt O15350); experiment: Ubiquitination assay in COS7 cells; format: cell-based; conditions: COS7, HA-p73α and HA-ubiquitin, MG-132 (FIG. 18, 19)
T2 construct: expressed in transfected cells; host or cells: COS7
T2 sequence (O15350 1-636): T1 sequence (O15350 1-636)
Procedure: COS7 cells were transiently transfected with a constant amount of expression plasmids encoding HA-p73α and HA-Ub in the presence or absence of varying amounts of IKK-α expression plasmids. After […] from the transfection, the cells were exposed for 6 hours to a proteasome inhibitor MG-132 (final concentration: 20 μM), and lysates from the whole cells were first subjected to immunoprecipitation with an anti-p73 monoclonal antibody and then to immunoblot using an anti-HA monoclonal antibody (12CA5; Roche Molecular Biochemicals) to analyze ubiquitination levels.
As described by Lee, C.-W. et al., Oncogene 18: 4171-4181 (1999), the steady-state level of p73 was regulated at least partially by the proteolytic process through the ubiquitin-proteasome pathway. Whether IKK-α inhibited the ubiquitination of p73 was investigated. COS7 cells were transfected with expression plasmids for HA-p73α and HA-ubiquitin together with or without varying amounts of IKK-α or FLAG-IKK-β expression plasmids. After 48 hours of the transfection, lysates from the whole cells were analyzed by immunoprecipitation and immunoblot and examined for the presence of p73α containing HA-ubiquitin.

FLAG-IKK-β: IκB kinase catalytic subunit IKK-β (IKK-2), FLAG-tagged, expressed from plasmid as comparison
stabilization of p53 (p53): no detectable effect on the stabilization of both p73 and p53
amount of HA-p73α (p73 [1]): no detectable effect on the stabilization of both p73 and p53
number of cells undergoing p73α-dependent apoptosis (H1299 cells): no remarkable effect on p73α-dependent apoptosis
p73-dependent transcriptional activation of p21WAF1, Bax, MDM2 promoter reporters (p73 [2]): no remarkable change in p73-dependent transcriptional activation
amount of ubiquitinated p73α (HA-p73α): inhibited the ubiquitination of p73α to a somewhat lesser degree
